{"source": "ChEMBL document CHEMBL5465560", "about": "“Selectivity Literature for EUbOPEN Chemogenomic Library” (2024)", "key": {"[1]": {"target": "Serine/threonine-protein kinase pim-2 (Homo sapiens, UniProt Q9P1W9)", "sequence (Q9P1W9 whole entry)": "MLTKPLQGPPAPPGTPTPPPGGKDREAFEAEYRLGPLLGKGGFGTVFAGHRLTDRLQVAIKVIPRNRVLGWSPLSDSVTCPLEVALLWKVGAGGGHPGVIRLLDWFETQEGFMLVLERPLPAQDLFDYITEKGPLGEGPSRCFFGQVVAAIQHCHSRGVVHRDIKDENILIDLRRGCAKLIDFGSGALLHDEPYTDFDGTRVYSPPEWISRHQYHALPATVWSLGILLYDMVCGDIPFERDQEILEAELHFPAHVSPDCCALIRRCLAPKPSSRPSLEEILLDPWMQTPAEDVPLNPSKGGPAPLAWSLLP", "assay": "Selectivity interaction (Enzymatic assay (Eurofins)) EUB0001049a PIM2"}, "[2]": {"target": "T1, Cyclin-dependent kinase 11A (Homo sapiens) (UniProt Q9UQ88)", "T1 sequence (whole entry)": "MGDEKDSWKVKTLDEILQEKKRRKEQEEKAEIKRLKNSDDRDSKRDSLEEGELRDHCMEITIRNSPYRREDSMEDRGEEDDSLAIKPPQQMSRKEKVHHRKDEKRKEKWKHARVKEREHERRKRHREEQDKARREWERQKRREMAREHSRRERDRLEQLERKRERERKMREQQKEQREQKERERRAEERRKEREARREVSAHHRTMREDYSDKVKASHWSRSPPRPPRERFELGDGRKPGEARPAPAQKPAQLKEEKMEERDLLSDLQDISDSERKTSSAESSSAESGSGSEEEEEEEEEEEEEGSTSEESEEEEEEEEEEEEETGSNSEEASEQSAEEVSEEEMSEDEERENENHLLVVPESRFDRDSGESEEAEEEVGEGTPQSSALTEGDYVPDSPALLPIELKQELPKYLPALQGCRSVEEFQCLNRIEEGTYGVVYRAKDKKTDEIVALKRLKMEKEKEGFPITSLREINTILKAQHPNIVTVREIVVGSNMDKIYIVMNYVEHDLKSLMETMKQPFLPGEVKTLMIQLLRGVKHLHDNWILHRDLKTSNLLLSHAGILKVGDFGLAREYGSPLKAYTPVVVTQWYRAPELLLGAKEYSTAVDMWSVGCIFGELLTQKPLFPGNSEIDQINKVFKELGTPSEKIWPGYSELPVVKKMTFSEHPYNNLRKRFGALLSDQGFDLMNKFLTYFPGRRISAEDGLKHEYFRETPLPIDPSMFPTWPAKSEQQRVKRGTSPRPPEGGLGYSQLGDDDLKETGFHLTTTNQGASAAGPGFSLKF", "assay": "Selectivity interaction (ActivX KiNativ screen (kinase selectivity in THP-1 cell lysates)) EUB0000639a CDK11A", "type": "subcellular", "settings": "lysate, at 0.2 µM"}, "[3]": {"target": "T2, Discoidin domain-containing receptor 2 (Homo sapiens) (UniProt Q16832)", "T2 sequence (whole entry)": "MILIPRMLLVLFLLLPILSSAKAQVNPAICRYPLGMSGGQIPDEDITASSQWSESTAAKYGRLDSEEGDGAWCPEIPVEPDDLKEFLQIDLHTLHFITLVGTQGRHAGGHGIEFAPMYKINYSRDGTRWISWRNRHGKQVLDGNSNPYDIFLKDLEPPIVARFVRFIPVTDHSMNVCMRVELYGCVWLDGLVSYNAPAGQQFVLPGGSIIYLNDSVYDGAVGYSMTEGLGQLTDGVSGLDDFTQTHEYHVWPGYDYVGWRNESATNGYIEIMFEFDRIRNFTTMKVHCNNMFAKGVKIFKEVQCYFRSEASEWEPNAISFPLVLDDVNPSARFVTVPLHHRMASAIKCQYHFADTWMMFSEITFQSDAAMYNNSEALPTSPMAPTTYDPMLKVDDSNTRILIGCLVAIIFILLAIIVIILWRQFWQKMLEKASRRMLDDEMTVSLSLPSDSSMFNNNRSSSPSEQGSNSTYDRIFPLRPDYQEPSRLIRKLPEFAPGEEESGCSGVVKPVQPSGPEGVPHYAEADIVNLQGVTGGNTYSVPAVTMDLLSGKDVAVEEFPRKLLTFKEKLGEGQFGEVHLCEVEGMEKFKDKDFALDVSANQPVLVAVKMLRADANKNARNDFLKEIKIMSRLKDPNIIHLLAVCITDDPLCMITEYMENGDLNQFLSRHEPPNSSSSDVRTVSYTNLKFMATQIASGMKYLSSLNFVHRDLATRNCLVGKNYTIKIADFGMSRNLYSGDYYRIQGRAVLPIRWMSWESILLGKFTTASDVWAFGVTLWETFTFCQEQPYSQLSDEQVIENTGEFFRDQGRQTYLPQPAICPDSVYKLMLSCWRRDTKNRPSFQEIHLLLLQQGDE", "settings": "at 10 µM"}, "[4]": {"target": "T3, Receptor-interacting serine/threonine-protein kinase 4 (Homo sapiens) (UniProt P57078)", "T3 sequence (whole entry)": "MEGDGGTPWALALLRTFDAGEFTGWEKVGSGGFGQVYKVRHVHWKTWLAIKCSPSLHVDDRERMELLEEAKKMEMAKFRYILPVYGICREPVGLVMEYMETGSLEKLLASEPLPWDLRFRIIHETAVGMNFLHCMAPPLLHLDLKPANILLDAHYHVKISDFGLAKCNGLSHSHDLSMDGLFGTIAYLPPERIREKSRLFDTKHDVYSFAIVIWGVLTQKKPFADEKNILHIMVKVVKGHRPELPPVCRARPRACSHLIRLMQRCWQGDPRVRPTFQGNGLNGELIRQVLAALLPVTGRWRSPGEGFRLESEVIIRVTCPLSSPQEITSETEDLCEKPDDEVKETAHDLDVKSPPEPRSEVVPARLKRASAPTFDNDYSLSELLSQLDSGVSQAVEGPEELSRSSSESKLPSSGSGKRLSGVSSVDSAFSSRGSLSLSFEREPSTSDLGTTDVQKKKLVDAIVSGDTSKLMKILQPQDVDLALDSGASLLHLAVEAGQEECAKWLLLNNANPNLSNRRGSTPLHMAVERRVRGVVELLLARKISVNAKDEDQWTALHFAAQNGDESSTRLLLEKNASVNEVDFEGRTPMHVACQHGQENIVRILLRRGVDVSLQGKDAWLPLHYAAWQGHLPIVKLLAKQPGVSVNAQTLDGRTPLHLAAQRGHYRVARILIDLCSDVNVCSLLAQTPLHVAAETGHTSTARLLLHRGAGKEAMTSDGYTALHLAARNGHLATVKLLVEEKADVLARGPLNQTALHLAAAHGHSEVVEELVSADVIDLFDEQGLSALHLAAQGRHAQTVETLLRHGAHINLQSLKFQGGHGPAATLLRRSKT", "assay": "Selectivity interaction (KinomeScan (DiscoverX)) EUB0000229b RIPK4", "settings": "at 10 µM"}, "[5]": {"target": "Mitogen-activated protein kinase kinase kinase kinase 5 (Homo sapiens) (UniProt Q9Y4K4)", "sequence (Q9Y4K4 whole entry, looked up)": "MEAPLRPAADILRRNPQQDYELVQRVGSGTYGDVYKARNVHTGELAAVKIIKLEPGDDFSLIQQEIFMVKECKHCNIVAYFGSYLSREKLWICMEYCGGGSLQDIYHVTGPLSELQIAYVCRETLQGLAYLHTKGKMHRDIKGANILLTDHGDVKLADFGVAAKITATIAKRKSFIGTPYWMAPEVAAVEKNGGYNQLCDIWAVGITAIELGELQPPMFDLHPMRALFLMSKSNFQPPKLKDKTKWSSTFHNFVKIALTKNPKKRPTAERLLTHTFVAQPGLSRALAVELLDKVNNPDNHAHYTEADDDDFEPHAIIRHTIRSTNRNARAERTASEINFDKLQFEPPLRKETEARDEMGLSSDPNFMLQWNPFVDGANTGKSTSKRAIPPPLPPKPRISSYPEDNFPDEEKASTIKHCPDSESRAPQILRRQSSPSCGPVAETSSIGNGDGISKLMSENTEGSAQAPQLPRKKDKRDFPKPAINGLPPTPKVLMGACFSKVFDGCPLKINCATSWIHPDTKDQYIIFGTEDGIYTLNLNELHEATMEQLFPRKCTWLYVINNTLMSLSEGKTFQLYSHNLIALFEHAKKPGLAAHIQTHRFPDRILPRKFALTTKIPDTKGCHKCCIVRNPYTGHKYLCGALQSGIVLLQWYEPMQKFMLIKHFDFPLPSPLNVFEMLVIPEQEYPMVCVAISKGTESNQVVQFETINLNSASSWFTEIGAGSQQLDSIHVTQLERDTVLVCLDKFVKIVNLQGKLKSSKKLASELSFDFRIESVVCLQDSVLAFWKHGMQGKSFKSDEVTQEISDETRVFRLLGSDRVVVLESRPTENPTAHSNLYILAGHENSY", "assay": "Selectivity interaction (ActivX KiNativ screen (ex vivo kinase selectivity in human PBMCs)) EUB0001619a MAP4K5", "type": "cell-based", "settings": "PBMC, at 1 µM"}, "Aurora kinase B": {"target": "Aurora kinase B (Homo sapiens, UniProt Q96GD4)", "sequence (Q96GD4 whole entry)": "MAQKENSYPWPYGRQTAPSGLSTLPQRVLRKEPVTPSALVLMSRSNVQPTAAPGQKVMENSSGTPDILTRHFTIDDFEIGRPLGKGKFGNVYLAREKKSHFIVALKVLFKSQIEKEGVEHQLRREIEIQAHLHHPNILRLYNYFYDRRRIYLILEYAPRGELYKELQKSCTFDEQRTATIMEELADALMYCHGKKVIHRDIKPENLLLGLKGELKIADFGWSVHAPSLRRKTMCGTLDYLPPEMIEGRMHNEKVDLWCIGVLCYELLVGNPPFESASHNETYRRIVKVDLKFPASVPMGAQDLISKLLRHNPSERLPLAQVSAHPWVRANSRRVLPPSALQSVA", "assay": "Selectivity interaction (KinomeScan (DiscoverX)) EUB0000618a AURKB", "settings": "at 10 µM"}, "[6]": {"target": "Protein arginine N-methyltransferase 1 (Homo sapiens, UniProt Q99873)", "sequence (Q99873 whole entry)": "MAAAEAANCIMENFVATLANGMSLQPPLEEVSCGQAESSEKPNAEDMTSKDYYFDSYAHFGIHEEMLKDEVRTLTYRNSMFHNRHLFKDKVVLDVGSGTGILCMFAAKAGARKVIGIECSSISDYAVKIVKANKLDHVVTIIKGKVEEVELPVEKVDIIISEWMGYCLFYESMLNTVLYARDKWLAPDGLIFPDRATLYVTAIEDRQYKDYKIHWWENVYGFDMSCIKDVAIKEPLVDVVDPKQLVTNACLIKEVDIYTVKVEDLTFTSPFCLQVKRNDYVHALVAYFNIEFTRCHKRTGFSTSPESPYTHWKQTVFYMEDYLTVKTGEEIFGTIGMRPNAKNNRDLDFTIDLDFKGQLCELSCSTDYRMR", "assay": "Selectivity interaction (Scintillation proximity assays) EUB0000255b PRMT1"}}}
{"smiles": "COc1cc(Nc2nc(C)cc(-c3cnn4nc(OC)ccc34)n2)cc(C(F)(F)F)c1", "values": [{"measurement": "IC50", "setting": "[1]", "value": "> 10", "unit": "µM"}]}
{"smiles": "CC[C@@H]1[C@H](F)C(=O)N[C@@H]1COc1nccc2cc(C(N)=O)c(OC)cc12", "note": "[ZIMLOVISERTIB]", "values": [{"measurement": "% of inhibition", "setting": "[2]", "value": 7.2, "unit": "%"}]}
{"smiles": "COCC(=O)NC/C=C/c1ccc2ncnc(Nc3ccc(Oc4ccc(C)nc4)c(C)c3)c2c1", "note": "[CP-724714]", "values": [{"measurement": "% of control", "setting": "[3]", "value": 100, "unit": "%"}]}
{"smiles": "COc1cc(N(C)c2ccnc3ccc(C(F)(F)F)cc23)cc(OC)c1OC", "values": [{"measurement": "% binding", "setting": "[4]", "value": 68, "unit": "%"}]}
{"smiles": "N#Cc1cccc(-c2c[nH]c3ncnc(N4CCOCC4)c23)c1", "values": [{"measurement": "% of inhibition", "setting": "[5]", "value": 16, "unit": "%"}]}
{"smiles": "O[C@H]1CC[C@H](Nc2ncc3nc(Nc4c(F)cc(F)cc4F)n([C@H]4CCOC4)c3n2)CC1", "values": [{"measurement": "% of control", "setting": "Aurora kinase B", "value": 100, "unit": "%"}]}
{"smiles": "COCCN1CCC(c2cc(CN(C)C(=O)c3cccc(Oc4ccccc4)c3)ccn2)CC1", "values": [{"measurement": "IC50", "setting": "[6]", "value": "> 10", "unit": "µM"}]}
